Data as given in the supplement of paper PMC10307832.

What was measured:
Assay in all cases: relative viability (nuclei count vs DMSO), 5 days (fraction); higher = more cells survive
Crizotinib + Luminespib = compound: C[C@@H](Oc1cc(-c2cnn(C3CCNCC3)c2)cnc1N)c1c(Cl)ccc(F)c1Cl [Crizotinib] + CCNC(=O)c1noc(-c2cc(C(C)C)c(O)cc2O)c1-c1ccc(CN2CCOCC2)cc1 [Luminespib] (partner 0.01 µM)
Summary of the method: (§1)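 Lung cancer cell lines in 1536-well plates got either a single drug or a fixed anchor-drug dose together with five library-drug doses (not always all listed) in √10 steps, by pin tool, on the day after seeding. Nuclei were counted after 5 days, and relative viability is the treated-to-vehicle ratio of nuclei counts. Values are medians of duplicate plates.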

Crizotinib + Alpelisib = compound: C[C@@H](Oc1cc(-c2cnn(C3CCNCC3)c2)cnc1N)c1c(Cl)ccc(F)c1Cl [Crizotinib] + Cc1nc(NC(=O)N2CCC[C@H]2C(N)=O)sc1-c1ccnc(C(C)(C)C(F)(F)F)c1 [Alpelisib] (partner 2 µM)
Summary of the method: as §1

Crizotinib + Dasatinib = compound: C[C@@H](Oc1cc(-c2cnn(C3CCNCC3)c2)cnc1N)c1c(Cl)ccc(F)c1Cl [Crizotinib] + Cc1nc(Nc2ncc(C(=O)Nc3c(C)cccc3Cl)s2)cc(N2CCN(CCO)CC2)n1 [Dasatinib] (partner 0.075 µM)
Summary of the method: as §1

Crizotinib + Pemetrexed = compound: C[C@@H](Oc1cc(-c2cnn(C3CCNCC3)c2)cnc1N)c1c(Cl)ccc(F)c1Cl [Crizotinib] + Nc1nc2[nH]cc(CCc3ccc(C(=O)N[C@@H](CCC(=O)O)C(=O)O)cc3)c2c(=O)[nH]1 [Pemetrexed] (partner 0.2 µM)
Summary of the method: as §1

Cell Line	relative viability (Crizotinib + Luminespib; first compound 0.01 µM)	relative viability (Crizotinib + Luminespib; first compound 0.03162 µM)	relative viability (Crizotinib + Luminespib; first compound 0.1 µM)	relative viability (Crizotinib + Luminespib; first compound 0.3162 µM)	relative viability (Crizotinib + Luminespib; first compound 1 µM)	relative viability (Crizotinib + Alpelisib; first compound 0.01 µM)	relative viability (Crizotinib + Alpelisib; first compound 0.03162 µM)	relative viability (Crizotinib + Alpelisib; first compound 0.1 µM)	relative viability (Crizotinib + Alpelisib; first compound 0.3162 µM)	relative viability (Crizotinib + Alpelisib; first compound 1 µM)	relative viability (Crizotinib + Dasatinib; first compound 0.01 µM)	relative viability (Crizotinib + Dasatinib; first compound 0.03162 µM)	relative viability (Crizotinib + Dasatinib; first compound 0.1 µM)	relative viability (Crizotinib + Dasatinib; first compound 0.3162 µM)	relative viability (Crizotinib + Dasatinib; first compound 1 µM)	relative viability (Crizotinib + Pemetrexed; first compound 0.01 µM)	relative viability (Crizotinib + Pemetrexed; first compound 0.03162 µM)	relative viability (Crizotinib + Pemetrexed; first compound 0.1 µM)	relative viability (Crizotinib + Pemetrexed; first compound 0.3162 µM)	relative viability (Crizotinib + Pemetrexed; first compound 1 µM)
HOP-62	0.915	0.789	0.995	0.855	0.902	0.93	1	0.731	0.964	1.08	0.581	0.637	0.613	0.663	0.716	0.347	0.266	0.331	0.28	0.31
IA-LM						0.726	0.814	0.805	0.737	0.675										
LC-2-ad	0.953	0.943	1.09	0.942	0.91	0.839	0.981	1.01		0.895	0.46	0.586	0.595	0.382	0.453	0.266	0.259	0.276		0.302
LCLC-97TM1	0.723	0.796	0.67	0.714	0.799	0.199	0.232	0.24	0.265	0.273	0.827	0.763	0.784	0.816	0.846	0.201	0.16	0.166	0.17	0.192
LCLC-103H	0.856	0.987	0.856		1.02	0.917	0.98	1.05	1.13	1.01	0.479	0.418	0.416	0.497	0.484	0.493	0.47	0.447	0.461	0.444
LK-2	0.173	0.188	0.188		0.201	1.14	0.885	0.898	1.3	1.14	0.369	0.338	0.253		0.285	0.276	0.188	0.246	0.166	0.236
LOU-NH91	0.351	0.311	0.346	0.34	0.345	0.648	0.682	0.72	0.707	0.742	0.523	0.547	0.623	0.554	0.486	0.35	0.368	0.383	0.396	0.383
LU99A	0.234	0.22	0.254	0.23	0.246	0.549	0.501	0.508	0.442	0.558	0.434	0.565	0.501	0.55	0.566	0.165	0.167	0.173	0.142	0.173
LXF-289	0.664	0.726	0.662	0.445	0.609	0.968	1.07	1.01	0.987	1.03	0.306	0.209	0.223	0.184	0.247	0.807	0.939	0.788	0.736	
NCI-H23	0.242	0.221	0.206	0.212	0.236	0.691	0.662	0.572		0.724	0.763	0.83	0.645		0.742	0.489	0.591	0.567		0.812
NCI-H322M	0.721	0.994	0.725	1	0.964	0.791		0.773	0.916	0.789	0.23	0.251	0.232	0.262	0.263		0.656	0.593	0.649	0.656
NCI-H358	0.464	0.431	0.488	0.416	0.334	0.81	0.802	0.798	0.852	0.759	0.137	0.163	0.147	0.151	0.156	0.174	0.168	0.172	0.18	0.173
NCI-H522	1.05	1.06	1.05	1.15	1.08						0.945		0.875	0.938	0.944	1.04	0.968	0.828	1.04	0.999
NCI-H727		0.346	0.296		0.509	0.655	0.575	0.583	0.674	0.685		0.398	0.348		0.341					
NCI-H1299						1.12	1.03	0.999	1.13	1										
NCI-H1623		0.469	0.502	0.486	0.5						0.455	0.502	0.499	0.454	0.505					
NCI-H1648																	0.703	0.568	0.81	0.675
NCI-H1650	0.165	0.193	0.202	0.18	0.206						0.273	0.299	0.311	0.362	0.299	0.308	0.403	0.334	0.37	0.408
NCI-H1703						0.285	0.299	0.329	0.364	0.366										
NCI-H2342	0.635	0.931	0.674	0.705	0.815						0.302	0.334	0.303	0.349	0.291	0.761	0.792	0.737	0.636	0.744
SW 900	0.172	0.164	0.19	0.194	0.175						0.449	0.518	0.763	0.597	0.633	0.505	0.437	0.493	0.476	0.466
